#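 Assay format: 96-well plates, 48-hour exposure. The concentration for full growth arrest is given as TGI.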
# Key:
# Experiment in all cases: NCI-60 cell line screen, 48 h
# [1] = tested on: 786-0 renal
# [2] = tested on: A498 renal
# [3] = tested on: A549 NSCLC
# [4] = tested on: ACHN renal
# [5] = tested on: BT-549 breast
# [6] = tested on: CAKI-1 renal
# [7] = tested on: CCRF-CEM leukemia
# [8] = tested on: COLO 205 colon
# [9] = tested on: DU-145 prostate
# [10] = tested on: EKVX NSCLC
# [11] = tested on: HCC-2998 colon
# [12] = tested on: HCT-116 colon
# [13] = tested on: HCT-15 colon
# [14] = tested on: HL-60(TB) leukemia
# [15] = tested on: HOP-92 NSCLC
# [16] = tested on: HS 578T breast
# [17] = tested on: HT29 colon
# [18] = tested on: IGROV1 ovarian
# [19] = tested on: K-562 leukemia
# [20] = tested on: KM12 colon
# [21] = tested on: LOX IMVI melanoma
# [22] = tested on: M14 melanoma
# [23] = tested on: MALME-3M melanoma
# [24] = tested on: MCF7 breast
# [25] = tested on: MDA-MB-435
# [26] = tested on: MDA-N
# [27] = tested on: MOLT-4 leukemia
# [28] = tested on: NCI-H226 lung
# [29] = tested on: NCI-H23 lung
# [30] = tested on: NCI-H460 lung
# [31] = tested on: NCI-H522 lung
# [32] = tested on: NCI/ADR-RES ovarian
# [33] = tested on: OVCAR-3 ovarian
# [34] = tested on: OVCAR-4 ovarian
# [35] = tested on: OVCAR-5 ovarian
# [36] = tested on: OVCAR-8 ovarian
# [37] = tested on: RPMI-8226 leukemia
# [38] = tested on: RXF 393 renal
# [39] = tested on: SF-295 CNS
# [40] = tested on: SF-539 CNS
# [41] = tested on: SK-MEL-28 melanoma
# [42] = tested on: SK-MEL-5 melanoma
# [43] = tested on: SK-OV-3 ovarian
# [44] = tested on: SN12C renal
# [45] = tested on: SNB-19 CNS
# [46] = tested on: SR leukemia
# [47] = tested on: SW-620 colon
# [48] = tested on: TK-10 renal
# [49] = tested on: U251 CNS
# [50] = tested on: UACC-257 melanoma
# [51] = tested on: UACC-62 melanoma
# [52] = tested on: UO-31 renal
# [53] = tested on: HOP-62 NSCLC
# [54] = tested on: MDA-MB-231 breast
# [55] = tested on: PC-3 prostate
# [56] = tested on: SF-268 CNS
# [57] = tested on: SK-MEL-2 melanoma
# [58] = tested on: SNB-75 CNS
# [59] = tested on: T-47D breast
smiles,measurement,setting,value
O=C1CCCCC[C@]12SC[C@H]1CON=C12,TGI,[1],> 100 µM
same,TGI,[2],44.7 µM
same,TGI,[3],> 100 µM
same,TGI,[4],> 100 µM
same,TGI,[5],> 100 µM
same,TGI,[6],58 µM
same,TGI,[7],> 100 µM
same,TGI,[8],> 100 µM
same,TGI,[9],> 100 µM
same,TGI,[10],> 100 µM
same,TGI,[11],> 100 µM
same,TGI,[12],> 100 µM
same,TGI,[13],> 100 µM
same,TGI,[14],> 100 µM
same,TGI,[15],50.2 µM
same,TGI,[16],> 100 µM
same,TGI,[17],> 100 µM
same,TGI,[18],> 100 µM
same,TGI,[19],> 100 µM
same,TGI,[20],> 100 µM
same,TGI,[21],> 100 µM
same,TGI,[22],62 µM
same,TGI,[23],> 100 µM
same,TGI,[24],82.4 µM
same,TGI,[25],39.5 µM
same,TGI,[26],32.5 µM
same,TGI,[27],> 100 µM
same,TGI,[28],> 100 µM
same,TGI,[29],> 100 µM
same,TGI,[30],> 100 µM
same,TGI,[31],69.6 µM
same,TGI,[32],83.4 µM
same,TGI,[33],> 100 µM
same,TGI,[34],> 100 µM
same,TGI,[35],> 100 µM
same,TGI,[36],> 100 µM
same,TGI,[37],> 100 µM
same,TGI,[38],77.1 µM
same,TGI,[39],> 100 µM
same,TGI,[40],> 100 µM
same,TGI,[41],> 100 µM
same,TGI,[42],> 100 µM
same,TGI,[43],> 100 µM
same,TGI,[44],57.6 µM
same,TGI,[45],> 100 µM
same,TGI,[46],> 100 µM
same,TGI,[47],> 100 µM
same,TGI,[48],> 100 µM
same,TGI,[49],42.2 µM
same,TGI,[50],> 100 µM
same,TGI,[51],71.7 µM
same,TGI,[52],> 100 µM
CC(C)NC(=O)OCc1c(COC(=O)NC(C)C)c(-c2ccc[n+](COC(=O)C3CC3)c2)n2c1CCC2,TGI,[1],> 100 µM
same,TGI,[2],88.1 µM
same,TGI,[3],> 100 µM
same,TGI,[4],82.7 µM
same,TGI,[5],> 100 µM
same,TGI,[6],89 µM
same,TGI,[7],> 100 µM
same,TGI,[8],> 100 µM
same,TGI,[9],> 100 µM
same,TGI,[10],> 100 µM
same,TGI,[11],> 100 µM
same,TGI,[12],> 100 µM
same,TGI,[13],> 100 µM
same,TGI,[14],> 100 µM
same,TGI,[53],> 100 µM
same,TGI,[15],> 100 µM
same,TGI,[16],> 100 µM
same,TGI,[17],> 100 µM
same,TGI,[18],> 100 µM
same,TGI,[19],> 100 µM
same,TGI,[20],> 100 µM
same,TGI,[21],> 100 µM
same,TGI,[22],> 100 µM
same,TGI,[23],> 100 µM
same,TGI,[24],> 100 µM
same,TGI,[54],> 100 µM
same,TGI,[25],> 100 µM
same,TGI,[27],> 100 µM
same,TGI,[28],> 100 µM
same,TGI,[29],> 100 µM
same,TGI,[30],> 100 µM
same,TGI,[31],63.1 µM
same,TGI,[32],> 100 µM
same,TGI,[33],> 100 µM
same,TGI,[34],> 100 µM
same,TGI,[35],> 100 µM
same,TGI,[36],> 100 µM
same,TGI,[55],> 100 µM
same,TGI,[37],> 100 µM
same,TGI,[38],> 100 µM
same,TGI,[56],> 100 µM
same,TGI,[39],> 100 µM
same,TGI,[40],> 100 µM
same,TGI,[57],> 100 µM
same,TGI,[41],> 100 µM
same,TGI,[42],> 100 µM
same,TGI,[43],> 100 µM
same,TGI,[44],> 100 µM
same,TGI,[45],> 100 µM
same,TGI,[58],> 100 µM
same,TGI,[46],> 100 µM
same,TGI,[47],> 100 µM
same,TGI,[59],> 100 µM
same,TGI,[48],> 100 µM
same,TGI,[49],> 100 µM
same,TGI,[50],> 100 µM
same,TGI,[51],> 100 µM
same,TGI,[52],> 100 µM
